Assay results from ChEMBL document CHEMBL4808221, “Design and Synthesis of Novel c-di-GMP G-Quadruplex Inducers as Bacterial Biofilm Inhibitors” (J Med Chem, 2021).
Calls of active or inactive are those of the source. No cut-off for these calls is given here.

Legend:
Quadruplex DNA = test: Induction of c-di-GMP G-quadruplex formation (unknown origin) measured at 300 nanometer by CD spectroscopy; format: nucleic-acid assay
c-di-GMP G-quadruplex [1] = test: Induction of c-di-GMP G-quadruplex formation in Pseudomonas aeruginosa PAO1 harboring wspF gene mutation assessed as inhibition of biofilm formation at 1.25 uM incubated for 20 hrs by crystal violet staining assay relative to control; format: nucleic-acid assay
c-di-GMP G-quadruplex [2] = test: Induction of c-di-GMP G-quadruplex formation in Pseudomonas aeruginosa PAO1 harboring wspF gene mutation assessed as inhibition of biofilm formation incubated for 20 hrs by crystal violet staining assay relative to control; format: nucleic-acid assay
Pseudomonas aeruginosa = test: Antibacterial activity against Pseudomonas aeruginosa PAO1 harboring wspF gene mutation assessed as reduction in bacterial growth at 512 uM by crystal violet staining assay relative to control; format: functional, organism-based

Compound	Activity (Quadruplex DNA)	inhibition (c-di-GMP G-quadruplex [1])	IC50 (c-di-GMP G-quadruplex [2])	Activity (Pseudomonas aeruginosa)
C[n+]1c(/C=C/c2cccc(O)c2)ccc2ccccc21	Active	29.4%	6.81 µM	inactive
C[n+]1c(/C=C/c2cnccn2)sc2ccccc21	inactive	11.4%	> 100 µM	inactive
C[n+]1c(/C=C/c2ccc(O)cc2)ccc2ccccc21	Active	13.4%	> 100 µM	inactive
C[n+]1c(/C=C/c2ccc(O)c(F)c2)sc2ccccc21	inactive	-7.67%	> 100 µM	inactive
C[n+]1c(/C=C/c2cc[nH]c2)ccc2ccccc21	Active	22.2%	9.61 µM	inactive
C[n+]1c(/C=C/c2ccccc2)ccc2ccccc21	inactive	18.8%	> 100 µM	inactive
C[n+]1c(/C=C/c2ccc(Br)cc2)ccc2ccccc21	–	–	> 100 µM	inactive
COc1ccc(/C=C/c2ccc3ccccc3[n+]2C)cc1	inactive	-9.62%	> 100 µM	inactive
C[n+]1c(/C=C/c2ccc(O)cc2)sc2ccccc21	Active	10.5%	> 100 µM	inactive
C[n+]1c(/C=C/c2ccc(N)cc2)sc2ccccc21	–	14.5%	> 100 µM	inactive
C[n+]1c(/C=C/c2cc[nH]c2)sc2ccccc21	Active	17.7%	7.84 µM	inactive
C[n+]1c(/C=C/c2ccc(F)cc2)sc2ccccc21	–	7.72%	> 100 µM	inactive
C[n+]1c(/C=C/c2ccc(F)cc2)ccc2ccccc21	–	21.3%	> 100 µM	inactive
C[n+]1c(/C=C/c2cc(Br)c(O)c(Br)c2)ccc2ccccc21	inactive	–	–	inactive
C[n+]1c(/C=C/c2ccc([N+](=O)[O-])cc2)sc2ccccc21	–	–	> 100 µM	inactive
C[n+]1c(/C=C/c2ccc(N)cc2)ccc2ccccc21	Active	2.11%	> 100 µM	inactive
C[n+]1c(/C=C/c2ccc(Br)cc2)sc2ccccc21	–	-4.77%	> 100 µM	inactive

Compound	Activity (Quadruplex DNA)	inhibition (c-di-GMP G-quadruplex [1])	IC50 (c-di-GMP G-quadruplex [2])	Activity (Pseudomonas aeruginosa)
CN1CCN(c2ccc(/C=C/c3ccc4ccccc4[n+]3C)cc2)CC1	inactive	-2.34%	> 100 µM	inactive
C[n+]1c(/C=C/c2cc(Br)c(O)c(Br)c2)sc2ccccc21	inactive	–	> 100 µM	inactive
COc1cc(/C=C/c2ccc3ccccc3[n+]2C)ccc1O	Active	21%	5.4 µM	inactive
C[n+]1c(/C=C/c2ccc(O)c(F)c2)ccc2ccccc21	inactive	4.21%	> 100 µM	inactive
C[n+]1c(/C=C/c2ccc(N3CCOCC3)cc2)ccc2ccccc21	inactive	1.18%	> 100 µM	inactive
C[n+]1c(/C=C/c2ccc(N3CCOCC3)cc2)sc2ccccc21	inactive	2.71%	> 100 µM	inactive
C[n+]1c(/C=C/c2ccc([N+](=O)[O-])cc2)ccc2ccccc21	–	–	> 100 µM	inactive
C[n+]1c(/C=C/c2ccncc2)sc2ccccc21	inactive	–	> 100 µM	inactive
CN(C)c1ccc(/C=C/c2sc3ccccc3[n+]2C)cc1	inactive	-2.67%	> 100 µM	inactive
C[n+]1c(/C=C/c2ccccc2)sc2ccccc21	inactive	19.5%	> 100 µM	inactive
CN1CCN(c2ccc(/C=C/c3sc4ccccc4[n+]3C)cc2)CC1	inactive	–	> 100 µM	inactive
C[n+]1c(/C=C/c2cnccn2)ccc2ccccc21	Active	8.36%	> 100 µM	inactive
C[n+]1c(/C=C/c2ccncc2)ccc2ccccc21	inactive	13%	> 100 µM	inactive
C[n+]1c(/C=C/c2ccc(O)c(O)c2)sc2ccccc21	Active	21.7%	11.5 µM	inactive
COc1ccc(/C=C/c2sc3ccccc3[n+]2C)cc1	inactive	-4.78%	> 100 µM	inactive
CN(C)c1ccc(/C=C/c2ccc3ccccc3[n+]2C)cc1	inactive	–	> 100 µM	inactive
